Laboratory results from PMC8632988, “Inhibition of SYK and cSrc kinases can protect bone and cartilage in preclinical models of osteoarthritis and rheumatoid arthritis” (Scientific Reports, 2021).
Like-named read-outs stand apart in the source and are kept apart here.

Experiments:
Test in all cases: Kinase selectivity profile assay
Format in all cases: biochemical
TLK1 = target: T1, TLK1 (Homo sapiens, UniProt Q9UKI8); conditions: 500 nM; relative to DMSO; read-out: Residual enzymatic activity
T1 construct: purchased Reaction Biology Corporation
Outline: (§1)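 Radiometric kinase assay run by a standard protocol. Unbound phosphate was removed by washing filters in phosphoric acid, and product radioactivity gave percent remaining kinase activity versus DMSO vehicle reactions. Run in duplicate.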

MSK2/RPS6KA4 = target: T2, MSK2/RPS6KA4 (Homo sapiens, UniProt O75676); conditions: 500 nM; relative to DMSO; read-out: Residual enzymatic activity
T2 construct: purchased Reaction Biology Corporation
Outline: as §1

MINK/MINK1 = target: T3, MINK/MINK1 (Homo sapiens, UniProt Q8N4C8); conditions: 500 nM; relative to DMSO; read-out: Residual enzymatic activity
T3 construct: purchased Reaction Biology Corporation
Outline: as §1

CDK1/cyclin B = target: T4, CDK1/cyclin B (Homo sapiens, UniProt P06493); conditions: 500 nM; relative to DMSO; read-out: Residual enzymatic activity
T4 construct: purchased Reaction Biology Corporation
Outline: as §1

Aurora B = target: T5, Aurora B (Homo sapiens, UniProt Q96GD4); conditions: 500 nM; relative to DMSO; read-out: Residual enzymatic activity
T5 construct: purchased Reaction Biology Corporation
Outline: as §1

c-MER = target: T6, c-MER (Homo sapiens, UniProt Q12866); conditions: 500 nM; relative to DMSO; read-out: Residual enzymatic activity
T6 construct: purchased Reaction Biology Corporation
Outline: as §1

ZAK/MLTK = target: T7, ZAK/MLTK (Homo sapiens, UniProt Q9NYL2); conditions: 500 nM; relative to DMSO; read-out: Residual enzymatic activity
T7 construct: purchased Reaction Biology Corporation
Outline: as §1

AKT3 = target: T8, AKT3 (Homo sapiens, UniProt Q9Y243); conditions: 500 nM; relative to DMSO; read-out: Residual enzymatic activity
T8 construct: purchased Reaction Biology Corporation
Outline: as §1

LOK/STK10 = target: T9, LOK/STK10 (Homo sapiens, UniProt O94804); conditions: 500 nM; relative to DMSO; read-out: Residual enzymatic activity
T9 construct: purchased Reaction Biology Corporation
Outline: as §1

EPHB4 = target: T10, EPHB4 (Homo sapiens, UniProt P54760); conditions: 500 nM, relative to DMSO; for remaining activity at 0.5 µM: read-out: Residual enzymatic activity
T10 construct: purchased Reaction Biology Corporation
T10 sequence (P54760 16-987): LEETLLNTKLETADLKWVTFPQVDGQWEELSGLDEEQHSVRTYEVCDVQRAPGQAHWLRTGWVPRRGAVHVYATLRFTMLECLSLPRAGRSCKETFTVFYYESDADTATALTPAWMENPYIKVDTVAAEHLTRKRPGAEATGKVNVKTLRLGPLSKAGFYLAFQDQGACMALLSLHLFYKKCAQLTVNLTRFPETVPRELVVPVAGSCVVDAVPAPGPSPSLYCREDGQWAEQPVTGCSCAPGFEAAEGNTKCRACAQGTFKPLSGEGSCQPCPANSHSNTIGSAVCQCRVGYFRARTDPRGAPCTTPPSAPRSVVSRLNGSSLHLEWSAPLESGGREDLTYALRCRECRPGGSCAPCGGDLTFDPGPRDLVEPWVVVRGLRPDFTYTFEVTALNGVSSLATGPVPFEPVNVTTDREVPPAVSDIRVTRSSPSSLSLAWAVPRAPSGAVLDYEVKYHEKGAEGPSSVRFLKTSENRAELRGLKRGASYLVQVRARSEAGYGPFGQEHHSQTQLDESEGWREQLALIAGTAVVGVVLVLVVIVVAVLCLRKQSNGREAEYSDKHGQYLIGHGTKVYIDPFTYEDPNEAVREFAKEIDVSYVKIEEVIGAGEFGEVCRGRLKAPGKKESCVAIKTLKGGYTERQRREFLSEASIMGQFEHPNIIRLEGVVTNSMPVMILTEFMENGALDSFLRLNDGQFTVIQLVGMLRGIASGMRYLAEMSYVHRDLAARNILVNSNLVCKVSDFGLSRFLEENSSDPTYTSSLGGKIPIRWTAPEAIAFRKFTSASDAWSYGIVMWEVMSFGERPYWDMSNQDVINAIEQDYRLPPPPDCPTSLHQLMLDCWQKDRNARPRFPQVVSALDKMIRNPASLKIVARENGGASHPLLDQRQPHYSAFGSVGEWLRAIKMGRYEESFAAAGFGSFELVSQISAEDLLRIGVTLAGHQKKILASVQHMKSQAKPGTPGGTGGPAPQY
Outline: as §1

CDK4/cyclin D1 = target: T11, CDK4/cyclin D1 (Homo sapiens, UniProt P11802); conditions: read-out: Residual enzymatic activity
T11 construct: purchased Reaction Biology Corporation
Outline: as §1

MEK3 = target: T12, MEK3 (Homo sapiens, UniProt P46734); conditions: 500 nM; relative to DMSO; read-out: Residual enzymatic activity
T12 construct: purchased Reaction Biology Corporation
Outline: as §1

CDK9/cyclin T1 = target: T13, CDK9/cyclin T1 (Homo sapiens, UniProt P50750); conditions: 500 nM; relative to DMSO; read-out: Residual enzymatic activity
T13 construct: purchased Reaction Biology Corporation
Outline: as §1

TRKB = target: T14, TRKB (Homo sapiens, UniProt Q16620); conditions: 500 nM; relative to DMSO; read-out: Residual enzymatic activity
T14 construct: purchased Reaction Biology Corporation
Outline: as §1

BMPR2 = target: T15, BMPR2 (Homo sapiens, UniProt Q13873); conditions: 500 nM; relative to DMSO; read-out: Residual enzymatic activity
T15 construct: purchased Reaction Biology Corporation
Outline: as §1

PDK1/PDPK1 = target: T16, PDK1/PDPK1 (Homo sapiens, UniProt O15530); conditions: 500 nM; relative to DMSO; read-out: Residual enzymatic activity
T16 construct: purchased Reaction Biology Corporation
Outline: as §1

PKCepsilon = target: T17, PKCepsilon (Homo sapiens, UniProt Q02156); conditions: 500 nM; relative to DMSO; read-out: Residual enzymatic activity
T17 construct: purchased Reaction Biology Corporation
Outline: as §1

WNK3 = target: T18, WNK3 (Homo sapiens, UniProt Q9BYP7); conditions: 500 nM; relative to DMSO; read-out: Residual enzymatic activity
T18 construct: purchased Reaction Biology Corporation
Outline: as §1

TEC = target: T19, TEC (Homo sapiens, UniProt P42680); conditions: 500 nM; relative to DMSO; read-out: Residual enzymatic activity
T19 construct: purchased Reaction Biology Corporation
Outline: as §1

PAK5 = target: T20, PAK5 (Homo sapiens, UniProt Q9P286); conditions: 500 nM; relative to DMSO; read-out: Residual enzymatic activity
T20 construct: purchased Reaction Biology Corporation
Outline: as §1

STK32C/YANK3 = target: T21, STK32C/YANK3 (Homo sapiens, UniProt Q86UX6); conditions: 500 nM; relative to DMSO; read-out: Residual enzymatic activity
T21 construct: purchased Reaction Biology Corporation
Outline: as §1

DMPK = target: T22, DMPK (Homo sapiens, UniProt Q09013); conditions: 500 nM; relative to DMSO; read-out: Residual enzymatic activity
T22 construct: purchased Reaction Biology Corporation
Outline: as §1

NEK7 = target: T23, NEK7 (Homo sapiens, UniProt Q8TDX7); conditions: 500 nM; relative to DMSO; read-out: Residual enzymatic activity
T23 construct: purchased Reaction Biology Corporation
Outline: as §1

MSK1/RPS6KA5 = target: T24, MSK1/RPS6KA5 (Homo sapiens, UniProt O75582); conditions: 500 nM; relative to DMSO; read-out: Residual enzymatic activity
T24 construct: purchased Reaction Biology Corporation
Outline: as §1

ERK5/MAPK7 = target: T25, ERK5/MAPK7 (Homo sapiens, UniProt Q13164); conditions: 500 nM; relative to DMSO; read-out: Residual enzymatic activity
T25 construct: purchased Reaction Biology Corporation
Outline: as §1

SGK2 = target: T26, SGK2 (Homo sapiens, UniProt Q9HBY8); conditions: 500 nM; relative to DMSO; read-out: Residual enzymatic activity
T26 construct: purchased Reaction Biology Corporation
Outline: as §1

GRK7 = target: T27, GRK7 (Homo sapiens, UniProt Q8WTQ7); conditions: 500 nM; relative to DMSO; read-out: Residual enzymatic activity
T27 construct: purchased Reaction Biology Corporation
Outline: as §1

DYRK3 = target: T28, DYRK3 (Homo sapiens, UniProt O43781); conditions: 500 nM; relative to DMSO; read-out: Residual enzymatic activity
T28 construct: purchased Reaction Biology Corporation
Outline: as §1

T9 sequence (O94804 whole entry): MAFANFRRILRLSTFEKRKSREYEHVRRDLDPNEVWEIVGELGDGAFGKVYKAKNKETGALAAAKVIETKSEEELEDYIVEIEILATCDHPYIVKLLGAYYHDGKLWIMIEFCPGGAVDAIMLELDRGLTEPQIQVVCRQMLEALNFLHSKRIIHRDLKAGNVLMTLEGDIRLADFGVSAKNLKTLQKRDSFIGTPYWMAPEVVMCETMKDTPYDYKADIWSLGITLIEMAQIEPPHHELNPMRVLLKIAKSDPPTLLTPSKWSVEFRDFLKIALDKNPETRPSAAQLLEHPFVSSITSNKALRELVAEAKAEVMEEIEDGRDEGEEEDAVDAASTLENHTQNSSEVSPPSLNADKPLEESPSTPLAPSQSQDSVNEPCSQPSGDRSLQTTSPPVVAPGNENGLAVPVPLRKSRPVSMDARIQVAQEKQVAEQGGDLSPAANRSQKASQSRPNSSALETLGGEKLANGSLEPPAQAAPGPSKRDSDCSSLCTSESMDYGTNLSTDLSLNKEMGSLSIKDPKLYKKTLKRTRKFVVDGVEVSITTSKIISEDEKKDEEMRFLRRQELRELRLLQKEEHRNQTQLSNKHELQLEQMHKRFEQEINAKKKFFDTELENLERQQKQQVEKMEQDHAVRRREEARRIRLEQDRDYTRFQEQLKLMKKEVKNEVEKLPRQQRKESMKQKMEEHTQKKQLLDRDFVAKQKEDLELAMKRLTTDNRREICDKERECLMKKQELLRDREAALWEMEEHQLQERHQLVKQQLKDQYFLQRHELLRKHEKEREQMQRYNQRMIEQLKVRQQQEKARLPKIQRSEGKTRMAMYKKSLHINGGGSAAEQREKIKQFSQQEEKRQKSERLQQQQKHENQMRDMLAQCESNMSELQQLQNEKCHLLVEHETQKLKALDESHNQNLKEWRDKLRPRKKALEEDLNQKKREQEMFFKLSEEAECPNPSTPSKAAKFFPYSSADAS
T23 sequence (Q8TDX7 whole entry): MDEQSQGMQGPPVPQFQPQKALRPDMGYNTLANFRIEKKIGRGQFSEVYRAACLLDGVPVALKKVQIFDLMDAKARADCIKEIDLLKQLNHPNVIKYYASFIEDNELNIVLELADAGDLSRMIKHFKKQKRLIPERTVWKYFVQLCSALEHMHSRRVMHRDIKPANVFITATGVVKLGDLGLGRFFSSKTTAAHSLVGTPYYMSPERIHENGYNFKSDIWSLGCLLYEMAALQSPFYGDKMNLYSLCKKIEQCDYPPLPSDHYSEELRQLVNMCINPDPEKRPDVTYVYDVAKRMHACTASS
T25 sequence (Q13164 whole entry): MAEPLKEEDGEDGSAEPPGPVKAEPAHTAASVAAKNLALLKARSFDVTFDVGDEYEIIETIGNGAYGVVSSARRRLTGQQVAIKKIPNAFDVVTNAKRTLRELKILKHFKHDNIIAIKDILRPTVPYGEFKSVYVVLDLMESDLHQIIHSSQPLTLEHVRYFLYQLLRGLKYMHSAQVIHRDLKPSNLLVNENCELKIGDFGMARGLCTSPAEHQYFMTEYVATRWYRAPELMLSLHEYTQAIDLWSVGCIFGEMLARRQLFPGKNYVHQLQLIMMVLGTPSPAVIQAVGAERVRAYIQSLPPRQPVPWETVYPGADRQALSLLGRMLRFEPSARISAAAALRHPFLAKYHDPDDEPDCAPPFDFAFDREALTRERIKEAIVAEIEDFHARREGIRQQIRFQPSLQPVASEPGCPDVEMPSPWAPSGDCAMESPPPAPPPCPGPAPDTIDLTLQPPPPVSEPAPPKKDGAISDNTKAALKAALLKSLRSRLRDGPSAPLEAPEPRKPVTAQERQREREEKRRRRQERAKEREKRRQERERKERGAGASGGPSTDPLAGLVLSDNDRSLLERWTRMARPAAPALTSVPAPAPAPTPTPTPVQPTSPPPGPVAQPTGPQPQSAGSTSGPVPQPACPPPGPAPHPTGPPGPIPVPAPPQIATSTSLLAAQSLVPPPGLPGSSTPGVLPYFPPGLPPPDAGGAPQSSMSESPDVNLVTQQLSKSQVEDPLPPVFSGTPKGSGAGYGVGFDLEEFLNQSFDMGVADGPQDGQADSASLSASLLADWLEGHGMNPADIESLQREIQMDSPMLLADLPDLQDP
T21 sequence (Q86UX6 whole entry): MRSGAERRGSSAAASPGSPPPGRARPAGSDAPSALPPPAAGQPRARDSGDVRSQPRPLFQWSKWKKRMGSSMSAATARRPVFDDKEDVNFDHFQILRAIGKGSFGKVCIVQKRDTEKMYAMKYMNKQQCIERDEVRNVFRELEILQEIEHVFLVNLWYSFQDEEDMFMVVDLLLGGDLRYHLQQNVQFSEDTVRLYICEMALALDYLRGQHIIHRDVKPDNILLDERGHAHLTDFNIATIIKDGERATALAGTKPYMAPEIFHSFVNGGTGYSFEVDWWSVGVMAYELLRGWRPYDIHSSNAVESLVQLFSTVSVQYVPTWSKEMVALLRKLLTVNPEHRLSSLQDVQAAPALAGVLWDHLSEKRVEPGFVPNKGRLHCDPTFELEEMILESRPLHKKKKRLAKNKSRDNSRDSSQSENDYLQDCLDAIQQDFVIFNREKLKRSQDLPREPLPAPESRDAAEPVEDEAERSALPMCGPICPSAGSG
T17 sequence (Q02156 whole entry): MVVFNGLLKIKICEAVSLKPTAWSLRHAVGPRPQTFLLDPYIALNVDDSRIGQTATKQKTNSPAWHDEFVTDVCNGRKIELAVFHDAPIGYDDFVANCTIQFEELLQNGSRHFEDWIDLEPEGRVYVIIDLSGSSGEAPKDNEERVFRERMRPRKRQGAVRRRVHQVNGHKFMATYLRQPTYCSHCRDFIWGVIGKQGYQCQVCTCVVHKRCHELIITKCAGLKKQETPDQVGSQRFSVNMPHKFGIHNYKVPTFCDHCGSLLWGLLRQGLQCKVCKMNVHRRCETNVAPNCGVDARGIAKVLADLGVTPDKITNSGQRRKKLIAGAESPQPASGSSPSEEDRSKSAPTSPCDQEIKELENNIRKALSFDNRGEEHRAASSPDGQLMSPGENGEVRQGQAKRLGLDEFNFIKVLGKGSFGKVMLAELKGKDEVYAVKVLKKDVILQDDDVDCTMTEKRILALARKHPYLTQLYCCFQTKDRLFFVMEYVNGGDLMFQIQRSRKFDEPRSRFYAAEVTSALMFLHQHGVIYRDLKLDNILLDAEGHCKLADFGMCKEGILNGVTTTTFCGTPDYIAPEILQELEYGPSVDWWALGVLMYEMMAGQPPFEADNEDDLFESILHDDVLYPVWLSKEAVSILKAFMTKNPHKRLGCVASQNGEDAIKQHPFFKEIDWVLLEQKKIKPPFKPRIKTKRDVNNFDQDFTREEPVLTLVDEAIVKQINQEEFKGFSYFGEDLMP
T3 sequence (Q8N4C8 whole entry): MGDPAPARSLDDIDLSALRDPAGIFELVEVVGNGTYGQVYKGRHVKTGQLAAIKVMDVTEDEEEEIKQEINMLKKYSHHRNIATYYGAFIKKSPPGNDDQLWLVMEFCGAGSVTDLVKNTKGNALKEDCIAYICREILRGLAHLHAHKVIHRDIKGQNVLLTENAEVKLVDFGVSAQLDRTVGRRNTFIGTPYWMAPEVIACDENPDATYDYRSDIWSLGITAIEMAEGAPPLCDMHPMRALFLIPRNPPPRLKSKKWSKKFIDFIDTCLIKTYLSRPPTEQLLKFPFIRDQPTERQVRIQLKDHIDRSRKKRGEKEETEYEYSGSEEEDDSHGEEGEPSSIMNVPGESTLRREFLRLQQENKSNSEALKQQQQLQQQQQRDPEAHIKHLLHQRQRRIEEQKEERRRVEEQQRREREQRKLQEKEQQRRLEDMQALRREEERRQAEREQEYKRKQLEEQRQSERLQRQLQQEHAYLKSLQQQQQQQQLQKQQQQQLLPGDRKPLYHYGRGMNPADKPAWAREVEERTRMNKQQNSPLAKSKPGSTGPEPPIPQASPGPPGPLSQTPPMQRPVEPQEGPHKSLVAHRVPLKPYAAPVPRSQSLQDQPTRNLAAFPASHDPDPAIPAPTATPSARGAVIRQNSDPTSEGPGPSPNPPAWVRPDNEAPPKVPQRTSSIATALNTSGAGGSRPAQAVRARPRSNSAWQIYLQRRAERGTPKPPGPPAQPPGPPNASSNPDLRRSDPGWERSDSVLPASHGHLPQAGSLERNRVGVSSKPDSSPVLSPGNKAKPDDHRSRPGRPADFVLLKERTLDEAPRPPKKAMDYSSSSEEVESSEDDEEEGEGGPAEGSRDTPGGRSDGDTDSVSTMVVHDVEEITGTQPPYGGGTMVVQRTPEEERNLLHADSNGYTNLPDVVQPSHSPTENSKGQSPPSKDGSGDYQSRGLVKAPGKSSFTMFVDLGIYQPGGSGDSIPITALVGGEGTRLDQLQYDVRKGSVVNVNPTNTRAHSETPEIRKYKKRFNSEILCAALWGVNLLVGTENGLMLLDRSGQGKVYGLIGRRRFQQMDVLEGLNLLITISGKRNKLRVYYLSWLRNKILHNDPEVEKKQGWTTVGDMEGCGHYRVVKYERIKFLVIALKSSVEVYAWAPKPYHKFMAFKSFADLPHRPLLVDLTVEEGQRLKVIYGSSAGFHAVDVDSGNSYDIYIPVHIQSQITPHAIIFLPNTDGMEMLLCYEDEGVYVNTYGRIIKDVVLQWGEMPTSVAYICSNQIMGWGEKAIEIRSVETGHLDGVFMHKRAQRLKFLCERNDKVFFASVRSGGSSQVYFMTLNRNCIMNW
T5 sequence (Q96GD4 whole entry): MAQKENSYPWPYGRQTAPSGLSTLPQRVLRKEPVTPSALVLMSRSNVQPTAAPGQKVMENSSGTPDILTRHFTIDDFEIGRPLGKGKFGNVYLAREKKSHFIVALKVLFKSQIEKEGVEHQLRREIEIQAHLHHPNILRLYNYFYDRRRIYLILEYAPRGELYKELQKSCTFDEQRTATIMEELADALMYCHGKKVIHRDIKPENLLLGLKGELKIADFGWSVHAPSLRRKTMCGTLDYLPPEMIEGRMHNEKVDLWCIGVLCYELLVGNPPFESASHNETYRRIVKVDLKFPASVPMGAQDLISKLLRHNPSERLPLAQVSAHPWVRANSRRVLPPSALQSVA

Row | Structure (SMILES) | remaining activity at 0.5 µM (TLK1) [%] | remaining activity at 0.5 µM (MSK2/RPS6KA4) [%] | remaining activity at 0.5 µM (MINK/MINK1) [%] | remaining activity at 0.5 µM (CDK1/cyclin B) [%] | remaining activity at 0.5 µM (Aurora B) [%] | remaining activity at 0.5 µM (c-MER) [%] | remaining activity at 0.5 µM (ZAK/MLTK) [%] | remaining activity at 0.5 µM (AKT3) [%] | remaining activity at 0.5 µM (LOK/STK10) [%] | remaining activity at 0.5 µM (EPHB4) [%] | remaining activity at 0.5 µM (MEK3) [%] | remaining activity at 0.5 µM (CDK9/cyclin T1) [%] | remaining activity at 0.5 µM (TRKB) [%] | remaining activity at 0.5 µM (BMPR2) [%] | remaining activity at 0.5 µM (PDK1/PDPK1) [%] | remaining activity at 0.5 µM (PKCepsilon) [%] | remaining activity at 0.5 µM (WNK3) [%] | remaining activity at 0.5 µM (TEC) [%] | remaining activity at 0.5 µM (PAK5) [%] | remaining activity at 0.5 µM (STK32C/YANK3) [%] | also measured
1 | COc1cc(Nc2ncnc(Nc3cc4c(cn3)NC(=O)C(C)(C)O4)n2)cc(OC)c1OC [MT-SYK-03] | 101 | 97.9 | 92 | 96 | 78.6 | 109 | 92.9 | 103 | 75.7 | > 54 | 119 | 118 | 92.4 | 90 | 85.5 | 106 | 82.4 | 71 | 98.5 | 115 | Residual enzymatic activity (EPHB4): 64.6%; remaining activity at 0.5 µM (CDK4/cyclin D1; 500 nM, relative to DMSO): 109%; remaining activity at 0.5 µM (DMPK): 94.3%; remaining activity at 0.5 µM (NEK7): 95.9%; remaining activity at 0.5 µM (MSK1/RPS6KA5): 106%; remaining activity at 0.5 µM (ERK5/MAPK7): 92.2%; remaining activity at 0.5 µM (SGK2): 110%; remaining activity at 0.5 µM (GRK7): 99.7%; remaining activity at 0.5 µM (DYRK3): 91.6%
2 | COc1cc(Nc2ncc(F)c(Nc3ccc4c(n3)NC(=O)C(C)(C)O4)n2)cc(OC)c1OC [R406, reference compound] | 75.1 | 97.7 | 87.3 | 75.6 | 40.2 | 73.9 | 85.4 | 95.2 | 37.4 | 51.2 | 131 | 99.5 | 28 | 71.1 | 30.7 | 95 | 77.7 | 39.4 | 49 | 102 | remaining activity at 0.5 µM (CDK4/cyclin D1): 104%; remaining activity at 0.5 µM (DMPK): 90.5%; remaining activity at 0.5 µM (NEK7): 62.3%; remaining activity at 0.5 µM (MSK1/RPS6KA5): 97.3%; remaining activity at 0.5 µM (ERK5/MAPK7): 88.2%; remaining activity at 0.5 µM (SGK2): 106%; remaining activity at 0.5 µM (GRK7): 89.6%; remaining activity at 0.5 µM (DYRK3): 90.6%
